Data taken from patent publication EP0226508A1, “Indolo[3,2-c]quinoline derivatives, process for their preparation and their anti-tumour activity” (priority 1985, dated 1987).
Several values for one entry are separate records, joined by “and”; a condition that tells them apart may be missing. Identical values can stand only once.

Columns and labels:
[1] = tested on: leucémie P 388; experiment: animal or person; type: in vivo, souris hybrides CDF 1; settings: for Nombre de survivants: survivors at J 40; for Variation pondérale en g: in vivo, ip
Text: (§1) L'activité antitumorale a été testée in vivo sur différentes tumeurs selon le protocole général suivant:
(§2) Toutes les souris mâles ou femelles sont inoculées par voie intrapéritonéale au jour Jo avec une quantité déterminée de cellules tumorales viables, variable selon la tumeur.
(§3) Elles sont ensuite réparties en différents lots. Chaque lot correspondant aux animaux traités par le produit à tester à une dose déterminée est composé de 10 souris. Dans ce cas, le produit à tester est dissous dans l'eau distillée et il est administré, pendant n jours (J₁-Jn) variables selon le protocole choisi, par voie intrapéritonéale à raison de 0,1 ml par 10 g de poids des souris traitées, les doses du produit administré étant précisées dans les tableaux ci-dessous.
(§4) Le lot "contrôle négatif", correspondant aux animaux qui ne sont pas traités par un produit, comprend 2 √N animaux, N étant égal au nombre total de souris traitées par un produit.
(§5) Enfin, tous les essais sont conduits parallèlement à l'étude d'un lot appelé "contrôle positif" de 10 animaux qui est traité par une molécule active, variable selon le protocole choisi, dans les mêmes conditions que les lots traités par le produit à tester, afin de valider l'essai.
(§6) L'activité antitumorale est évaluée en considé-rant l'augmentation du temps de survie des animaux traités par rapport à celui des animaux du lot "contrôle négatif" selon la formule : [formula]
(§7) Un composé est considéré comme étant actif lorsque la valeur du rapport T/C est égale ou supérieure à 125 % selon le protocole retenu. Il est toxique lorsque cette valeur est égale ou inférieure à 85 %. Le produit est également considéré comme toxique lorsque la variation pondérale, exprimée en grammes et calculée par la formule : Poids moyen du lot mesuré au jour 5 -poids moyen du même lot au jour 1 est égale ou inférieure à - 4 g.
a) Test de la leucémie P 388 (GERAN et al., Cancer Chemother, 1972, 2, 07-57).
Les essais sont effectués avec des souris hybrides CDF 1 inoculées par voie intrapéritonéale avec 10⁶ cellules leucémiques de la lignée P 388. Le composé à tester est administré pendant 5 jours (J1-J5). Le contrôle positif du test est le 5-fluorouracile qui est administré dans les mêmes conditions. Le nombre d'animaux survivants est évalué au jour J 40. Un composé est considéré comme étant actif lorsque le rapport T/C est supérieur à 127 %.

[2] = tested on: leucémie L 1210; experiment: In vivo antitumour activity, L 1210 leukemia test; parameters: species or system souris hybrides CDF₁; settings: for Nombre de survivants: survivors at J 30
Text: as §1, §2, §3, §4, §5, §6, §7
b) Test de la leucémie L 1210 (GERAN et al., Cancer Chemother, 1972, 2, 07-57).
Les essais sont effectués avec des souris hybrides CDF₁ inoculées avec 10⁵ cellules leucémiques de la lignée L 1210. Le composé à tester est administré pendant 5 jours (J₁-J₅).Le contrôle positif du test est le 5-fluorouracile administré dans les mêmes conditions. Le nombre d'animaux survivants est évalué au jour J 30. Un composé est considéré comme étant actif lorsque le rapport T/C est supérieur ou égal à 125 %.

[3] = tested on: mélanome B 16; experiment: In vivo antitumour activity, B 16 melanoma test; parameters: species or system souris hybrides BDF₁; settings: B 16 melanoma, BDF₁ mice, 1 mg/kg i.p. J1-J9
Text: as §1, §2, §3, §4, §5, §6
Le produit est également considéré comme toxique lorsque la variation pondérale, exprimée en grammes et calculée par la formule : Poids moyen du lot mesuré au jour 5 -poids moyen du même lot au jour 1 est égale ou inférieure à - 4 g.
Les essais sont effectués avec des souris hybrides BDF₁ inoculées avec 0,5 ml d'un homogénat de mélanome B 16 réalisé à partir de 1 g de tumeur dans 10 ml de sérum physiologique. Le composé à tester est administré pendant 9 jours (J₁-J₉).Le contrôle positif du test est le Cis-Platine administré dans les mêmes conditions. Le nombre d'animaux survivants est évalué au jour J 60.

[4] = tested on: lignée tumorale leucémie L 1210; experiment: In vitro cytotoxic activity on L 1210 leukemia cell culture (inhibition of cell proliferation); type: cell-based; settings: Mus musculus, L1210; L 1210 culture in exponential growth, 37°C, after 48 hours of contact; read-out: ID 50 (the source's name)
Procedure: 1) In vitro : (PAOLETTI et al., Chem. Biol. Interaction, 1979, 25, 45-58).
L'activité cytotoxique des composés de l'invention a été évaluée par des essais in vitro. Ces essais consistent à ajouter des concentrations croissantes du composé à tester à une culture cellulaire de la lignée tumorale leucémie L 1210 en phase exponentielle de croissance. Les cellules sont incubées à 37°C dans une étuve à CO₂ et comptées toutes les 24 heures. Le calcul de l'ID₅₀ (concentration du produit exprimée en micromole 1⁻¹ qui inhibe la prolifération cellulaire à 50 p. 100) est effectuée après 48 heures de contact. Ainsi déterminées les ID₅₀ des composés de l'invention sont rassemblées dans le tableau ci-après.

[5] = tested on: souris consanguines DBA₂ saines; experiment: Acute toxicity, single intraperitoneal injection in healthy mice, mortality at day 7; type: in vivo; settings: single i.p. injection, 50 mg/kg
[6] = P 388, CDF 1 mice, 20 mg/kg i.p. J1-J5
[7] = L 1210, CDF₁ mice, 20 mg/kg i.p. J1-J5, 20 mg/kg
[8] = L 1210, CDF₁ mice, 20 mg/kg i.p. J1-J5, listed as 5 Fluoro-uracile, 20 mg/kg
[9] = L 1210, CDF₁ mice, 20 mg/kg i.p. J1-J5
[10] = Mus musculus, P388, ip, P 388, CDF 1 mice, 5 mg/kg i.p. J1-J5, read-out: T/C %
[11] = Mus musculus, P388, ip, P 388, CDF 1 mice, 10 mg/kg i.p. J1-J5, read-out: T/C %
[12] = Mus musculus, P388, ip, P 388, CDF 1 mice, 20 mg/kg i.p. J1-J5, read-out: T/C %
[13] = P 388, CDF 1 mice, 5 mg/kg i.p. J1-J5
[14] = P 388, CDF 1 mice, 10 mg/kg i.p. J1-J5
[15] = Mus musculus, P388, ip, P 388, CDF 1 mice, 40 mg/kg i.p. J1-J5, read-out: T/C %
[16] = P 388, CDF 1 mice, 40 mg/kg i.p. J1-J5
[17] = L 1210, CDF₁ mice, 5 mg/kg i.p. J1-J5
[18] = L 1210, CDF₁ mice, 10 mg/kg i.p. J1-J5
[19] = L 1210, CDF₁ mice, 2,5 mg/kg i.p. J1-J5

With `O=c1[nH]cc(F)c(=O)[nH]1` [5 - Fluoro-uracile, 5-fluorouracile, reference compound] the Nombre de survivants [1, 6] was 0, the “Jour médian de survie” value [2, 7] was 15,7 and 14,5 and the T/C % [2, 7] was 191% and 183%. For the same compound, the “Jour médian de survie” value [2, 8] was 15,5, the T/C % [2, 8] was 174% and the Nombre de survivants [2, 9] was 0.
With `[NH2][Pt]([NH2])([Cl])[Cl]` [Cis-Platine, reference compound] the “Jour médian de survie” value ([3]; 1 mg/kg) was 39 and 37, the T/C % ([3]; 1 mg/kg) was 140% and 142% and 157% and the Nombre de survivants ([3]; survivors at J 60) was 0.
With `CCN(CC)CCCNc1nc2ccccc2c2c1c1cc(OC)ccc1n2C` [Dérivé N°1, (diéthylamino-3 propylamino)-6 méthoxy-8 méthyl-11 11-H indolo[3,2-c]quinoléine] the IC50 [4] was 350 nM, the “mortalité évaluée au septième jour après l'administration” value [5] was “aucune mortalité” and the response vs control in vivo at 5 mg/kg [1, 10] was 142%. It also gave a response vs control in vivo at 10 mg/kg [1, 11] of 154%, a response vs control in vivo at 20 mg/kg [1, 12] of 142% and a Nombre de survivants [1, 13] of 0. The Nombre de survivants [1, 14] was 0, the Nombre de survivants [1, 6] was 0 and the “Variation pondérale en g” value ([1]; 5 mg/kg) was “- 0,4 g”. For the same compound, the “Variation pondérale en g” value ([1]; 10 mg/kg) was “- 0,7 g” and the “Variation pondérale en g” value ([1]; 20 mg/kg) was “- 1,2 g”.
`COc1ccc2c(c1)c1c(NCCCN(C)C)nc3ccccc3c1n2C` [Dérivé N°2, (diméthylamino-3 propylamino)-6 méthoxy-8 méthyl-11 11-H indolo[3,2-c]quinoléine] gave an IC50 [4] of 400 nM.
For `CN(C)CCCNc1nc2ccccc2c2c1c1cc(O)ccc1n2C` [Dérivé N°4, (diméthylamino-3 propylamino)-6 hydroxy-8 méthyl-11 11-H indolo[3,2-c]quinoléine], the IC50 [4] was 40 nM, the response vs control in vivo at 5 mg/kg [1, 10] was 133% and the response vs control in vivo at 10 mg/kg [1, 11] was 136%. For the same compound, the response vs control in vivo at 20 mg/kg [1, 12] was 137%, the response vs control in vivo at 40 mg/kg [1, 15] was 65% and the response vs control in vivo at 2.5 mg/kg ([1]; Mus musculus, P388, ip, P 388, CDF 1 mice, 2,5 mg/kg i.p. J1-J5, read-out: T/C %) was 129%. The Nombre de survivants [1, 13] was 0, the Nombre de survivants [1, 14] was 0 and the Nombre de survivants [1, 6] was 0. The Nombre de survivants [1, 16] was 0, the Nombre de survivants ([1]; P 388, CDF 1 mice, 2,5 mg/kg i.p. J1-J5) was 0 and the “Variation pondérale en g” value ([1]; 5 mg/kg) was “+ 2,3 g”. For the same compound, the “Variation pondérale en g” value ([1]; 10 mg/kg) was “+ 1,3 g”, the “Variation pondérale en g” value ([1]; 20 mg/kg) was “+ 1,1 g” and the “Variation pondérale en g” value ([1]; 40 mg/kg) was “+ 3,8 g”. For the same compound, the “Jour médian de survie” value [2, 17] was 13,0, the T/C % [2, 17] was 158% and the Nombre de survivants [2, 17] was 0. For the same compound, the “Jour médian de survie” value [2, 18] was 11,25, the T/C % [2, 18] was 137% and the Nombre de survivants [2, 18] was 0. The “Jour médian de survie” value [2, 9] was 10,1, the T/C % [2, 9] was 123% and the Nombre de survivants [2, 9] was 0. The “Jour médian de survie” value [2, 19] was 10,3, the T/C % [2, 19] was 126% and the Nombre de survivants [2, 19] was 0.
`CCN(CC)CCCNc1nc2ccccc2c2[nH]c3ccc(OC)cc3c12` [Dérivé N°5, (diéthylamino-3 propylamino)-6 méthoxy-8 11-H indolo[3,2-c]quinoléine] was tested, and the IC50 [4] was 690 nM, the “mortalité évaluée au septième jour après l'administration” value [5] was “aucune mortalité” and the response vs control in vivo at 10 mg/kg [1, 11] was 128%. The response vs control in vivo at 20 mg/kg [1, 12] was 124%, the response vs control in vivo at 40 mg/kg [1, 15] was 80% and the Nombre de survivants [1, 14] was 0. For the same compound, the Nombre de survivants [1, 6] was 0, the Nombre de survivants [1, 16] was 0 and the “Variation pondérale en g” value ([1]; 10 mg/kg) was “- 0,6 g”. The “Variation pondérale en g” value ([1]; 20 mg/kg) was “+ 0,8 g” and the “Variation pondérale en g” value ([1]; 40 mg/kg) was “- 2,1 g”.
`COc1ccc2[nH]c3c4ccccc4nc(NCCCN(C)C)c3c2c1` [Dérivé N°6, (diméthylamino-3 propylamino)-6 méthoxy-8 11-H indolo [3,2-c]quinoléine] gave an IC50 [4] of 800 nM.
`CCN(CC)CCNc1nc2ccccc2c2[nH]c3ccc(OC)cc3c12` [Dérivé N°7, (diéthylamino-2 éthylamino)-6 méthoxy-8 11-H indolo[3,2-c]quinoléine] was tested, and the IC50 [4] was 2100 nM.
For `COc1ccc2[nH]c3c4ccccc4nc(NCCCN4CCOCC4)c3c2c1` [Dérivé N°8, méthoxy-8 (morpholino-3 propylamino)-6 11-H indolo[3,2-c]quinoléine], the IC50 [4] was 610 nM.
Work on `COc1ccc2[nH]c3c4ccccc4nc(NCCCN4CCCCC4)c3c2c1` [Dérivé N°9, méthoxy-8 (pipéridino-3 propylamino)-6 11-H indolo [3,2-c]quinoléine] yielded an IC50 [4] of 640 nM.
For `CCNCCCNc1nc2ccccc2c2[nH]c3ccc(OC)cc3c12` [Dérivé N°10, (éthylamino-3 propylamino)-6 méthoxy-8 11-H indolo [3,2-c]quinoléine], the IC50 [4] was 580 nM.
`CCN(CC)CCNc1nc2ccccc2c2[nH]c3ccc(O)cc3c12` [Dérivé N°13, (diéthylamino-2 éthylamino)-6 hydroxy-8 11-H indolo[3,2-c]quinoléine] showed an IC50 [4] of 2600 nM.
